# Data taken from ChEMBL document CHEMBL5532655, “Discovery of (R)-4-(8-methoxy-2-methyl-1-(1-phenylethy)-1H-imidazo[4,5-c]quinnolin-7-yl)-3,5-dimethylisoxazole as a potent and selective BET inhibitor for treatment of acute myeloid leukemia (AML) guided by FEP calculation” (Eur J Med Chem, 2024).
# Legend:
# [1] = molecular target: CREB-binding protein (Homo sapiens) (UniProt Q92793); assay: Binding affinity to CREBBP (unknown origin) using biotinylated histone peptide H4 as substrate at 1 uM incubated for 2 hrs by AlphaScreen assay relative to control
# Chain of CREB-binding protein (Homo sapiens) (Q92793 2-2442 limits assumed): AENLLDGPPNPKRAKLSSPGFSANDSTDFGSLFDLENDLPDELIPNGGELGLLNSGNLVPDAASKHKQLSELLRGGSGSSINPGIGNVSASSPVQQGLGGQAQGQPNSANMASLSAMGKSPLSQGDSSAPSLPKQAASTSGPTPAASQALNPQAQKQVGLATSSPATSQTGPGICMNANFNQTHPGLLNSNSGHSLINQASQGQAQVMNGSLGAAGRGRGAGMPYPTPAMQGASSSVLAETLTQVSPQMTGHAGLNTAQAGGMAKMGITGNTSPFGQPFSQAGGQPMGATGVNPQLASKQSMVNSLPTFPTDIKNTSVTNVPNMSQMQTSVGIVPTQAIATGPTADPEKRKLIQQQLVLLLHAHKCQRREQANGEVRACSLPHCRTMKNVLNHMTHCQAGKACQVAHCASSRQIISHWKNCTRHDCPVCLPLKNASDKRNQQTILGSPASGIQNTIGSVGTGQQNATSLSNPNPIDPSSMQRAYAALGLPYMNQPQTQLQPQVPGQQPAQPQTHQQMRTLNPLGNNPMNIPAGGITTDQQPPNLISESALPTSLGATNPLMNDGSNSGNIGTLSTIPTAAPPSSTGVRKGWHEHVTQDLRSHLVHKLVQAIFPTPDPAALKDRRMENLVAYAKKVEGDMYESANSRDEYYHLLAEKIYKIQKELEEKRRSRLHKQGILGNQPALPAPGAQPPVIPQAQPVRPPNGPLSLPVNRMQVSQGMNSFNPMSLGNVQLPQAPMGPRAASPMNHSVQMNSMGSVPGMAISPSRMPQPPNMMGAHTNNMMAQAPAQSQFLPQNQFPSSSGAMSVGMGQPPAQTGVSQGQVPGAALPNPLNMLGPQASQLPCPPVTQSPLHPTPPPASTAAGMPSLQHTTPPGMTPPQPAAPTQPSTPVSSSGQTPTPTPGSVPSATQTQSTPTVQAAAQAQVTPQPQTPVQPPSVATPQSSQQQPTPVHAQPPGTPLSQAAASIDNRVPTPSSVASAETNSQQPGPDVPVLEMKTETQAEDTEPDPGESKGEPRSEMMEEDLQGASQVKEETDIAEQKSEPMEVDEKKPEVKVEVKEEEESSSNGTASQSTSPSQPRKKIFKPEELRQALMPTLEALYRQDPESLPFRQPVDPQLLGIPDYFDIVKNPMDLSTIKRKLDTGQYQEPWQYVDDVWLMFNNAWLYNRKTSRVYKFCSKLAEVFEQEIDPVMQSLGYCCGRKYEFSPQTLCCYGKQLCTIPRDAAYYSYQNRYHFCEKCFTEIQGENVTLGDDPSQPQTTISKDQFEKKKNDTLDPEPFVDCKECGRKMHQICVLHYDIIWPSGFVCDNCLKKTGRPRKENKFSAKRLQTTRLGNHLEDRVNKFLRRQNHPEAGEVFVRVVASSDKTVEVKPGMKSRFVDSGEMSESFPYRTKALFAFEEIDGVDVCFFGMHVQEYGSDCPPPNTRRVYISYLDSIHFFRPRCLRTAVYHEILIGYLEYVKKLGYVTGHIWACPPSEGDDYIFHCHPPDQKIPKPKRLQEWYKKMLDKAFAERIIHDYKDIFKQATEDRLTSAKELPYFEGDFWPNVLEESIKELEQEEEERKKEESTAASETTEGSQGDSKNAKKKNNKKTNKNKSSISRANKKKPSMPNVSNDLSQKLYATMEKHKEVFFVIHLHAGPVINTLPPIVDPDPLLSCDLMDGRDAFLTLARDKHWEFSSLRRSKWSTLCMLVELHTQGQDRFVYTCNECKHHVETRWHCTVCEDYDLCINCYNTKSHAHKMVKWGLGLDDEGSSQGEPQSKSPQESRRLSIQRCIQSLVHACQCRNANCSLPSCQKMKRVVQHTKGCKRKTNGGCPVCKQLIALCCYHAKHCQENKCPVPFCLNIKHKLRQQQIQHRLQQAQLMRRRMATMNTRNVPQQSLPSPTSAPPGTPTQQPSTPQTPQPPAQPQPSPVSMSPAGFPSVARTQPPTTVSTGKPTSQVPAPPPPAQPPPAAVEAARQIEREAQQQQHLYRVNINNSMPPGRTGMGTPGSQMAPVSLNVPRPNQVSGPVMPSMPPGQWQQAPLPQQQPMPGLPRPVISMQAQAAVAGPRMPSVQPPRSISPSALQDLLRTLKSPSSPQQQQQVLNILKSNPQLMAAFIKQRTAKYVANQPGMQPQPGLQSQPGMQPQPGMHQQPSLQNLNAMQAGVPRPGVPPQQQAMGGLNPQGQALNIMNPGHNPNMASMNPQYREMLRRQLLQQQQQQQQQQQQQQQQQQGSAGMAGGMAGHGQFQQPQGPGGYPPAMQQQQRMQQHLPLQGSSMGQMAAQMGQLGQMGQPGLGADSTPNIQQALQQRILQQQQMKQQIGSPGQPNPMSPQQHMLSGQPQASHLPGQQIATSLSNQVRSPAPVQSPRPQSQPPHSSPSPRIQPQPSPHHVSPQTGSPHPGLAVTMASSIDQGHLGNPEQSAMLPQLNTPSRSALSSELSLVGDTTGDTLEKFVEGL
# [2] = species on record: Homo sapiens; assay: Binding affinity to PHIP2 (unknown origin) using biotinylated histone peptide H4 as substrate at 1 uM incubated for 2 hrs by AlphaScreen assay relative to control
# [3] = molecular target: T1, Bromodomain-containing protein 9 (Homo sapiens) (UniProt Q9H8M2); assay: Binding affinity to BRD9 (unknown origin) using biotinylated histone peptide H4 as substrate at 1 uM incubated for 2 hrs by AlphaScreen assay relative to control
# T1 sequence (whole entry): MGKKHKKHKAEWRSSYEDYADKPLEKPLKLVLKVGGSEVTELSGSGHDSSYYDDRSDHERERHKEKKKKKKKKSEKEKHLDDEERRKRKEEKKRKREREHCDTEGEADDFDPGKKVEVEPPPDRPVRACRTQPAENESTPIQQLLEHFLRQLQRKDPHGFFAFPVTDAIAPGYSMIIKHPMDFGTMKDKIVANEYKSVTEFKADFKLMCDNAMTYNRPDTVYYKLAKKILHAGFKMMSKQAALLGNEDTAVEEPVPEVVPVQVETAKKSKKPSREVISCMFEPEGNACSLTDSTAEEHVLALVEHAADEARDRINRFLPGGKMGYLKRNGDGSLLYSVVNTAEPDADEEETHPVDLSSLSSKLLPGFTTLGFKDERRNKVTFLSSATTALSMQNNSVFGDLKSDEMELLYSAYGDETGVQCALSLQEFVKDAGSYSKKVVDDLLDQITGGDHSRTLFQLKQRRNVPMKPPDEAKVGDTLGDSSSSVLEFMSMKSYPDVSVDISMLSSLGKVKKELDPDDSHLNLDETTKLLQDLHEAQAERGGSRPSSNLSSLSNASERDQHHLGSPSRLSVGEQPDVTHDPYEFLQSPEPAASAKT
# [4] = molecular target: T2, Bromodomain-containing protein 7 (Homo sapiens) (UniProt Q9NPI1); assay: Binding affinity to BRD7 (unknown origin) using biotinylated histone peptide H4 as substrate at 1 uM incubated for 2 hrs by AlphaScreen assay relative to control
# T2 sequence (whole entry): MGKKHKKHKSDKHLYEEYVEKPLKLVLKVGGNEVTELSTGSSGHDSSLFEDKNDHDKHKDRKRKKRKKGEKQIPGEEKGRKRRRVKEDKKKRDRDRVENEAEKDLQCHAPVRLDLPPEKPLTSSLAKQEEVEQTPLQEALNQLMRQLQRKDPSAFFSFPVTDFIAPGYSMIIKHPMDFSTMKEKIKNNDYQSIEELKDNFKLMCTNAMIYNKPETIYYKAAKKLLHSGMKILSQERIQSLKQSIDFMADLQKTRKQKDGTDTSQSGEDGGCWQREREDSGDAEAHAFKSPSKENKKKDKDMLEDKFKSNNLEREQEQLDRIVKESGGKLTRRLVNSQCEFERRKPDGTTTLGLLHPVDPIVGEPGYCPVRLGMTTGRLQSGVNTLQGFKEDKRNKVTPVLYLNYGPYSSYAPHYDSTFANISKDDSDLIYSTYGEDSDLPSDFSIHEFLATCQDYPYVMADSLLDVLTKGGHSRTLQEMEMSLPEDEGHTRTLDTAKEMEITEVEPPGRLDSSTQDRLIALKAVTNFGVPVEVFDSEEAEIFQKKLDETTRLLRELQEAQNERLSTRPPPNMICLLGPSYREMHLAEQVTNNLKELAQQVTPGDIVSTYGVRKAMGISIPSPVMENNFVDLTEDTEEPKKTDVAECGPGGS
# [5] = molecular target: SWI/SNF-related matrix-associated actin-dependent regulator of chromatin subfamily A member 4 (Homo sapiens) (UniProt P51532); assay: Binding affinity to SMARCA4 (unknown origin) using biotinylated histone peptide H4 as substrate at 1 uM incubated for 2 hrs by AlphaScreen assay relative to control
# [6] = molecular target: CREB-binding protein (Homo sapiens) (UniProt Q92793); conditions: time 30.0 min
# [7] = molecular target: Histone acetyltransferase p300 (Homo sapiens) (UniProt Q09472); conditions: time 30.0 min
# [8] = molecular target: Chromatin remodeling regulator CECR2 (Homo sapiens) (UniProt Q9BXF3); conditions: time 30.0 min
# Chain of Chromatin remodeling regulator CECR2 (Homo sapiens) (Q9BXF3 whole entry, looked up): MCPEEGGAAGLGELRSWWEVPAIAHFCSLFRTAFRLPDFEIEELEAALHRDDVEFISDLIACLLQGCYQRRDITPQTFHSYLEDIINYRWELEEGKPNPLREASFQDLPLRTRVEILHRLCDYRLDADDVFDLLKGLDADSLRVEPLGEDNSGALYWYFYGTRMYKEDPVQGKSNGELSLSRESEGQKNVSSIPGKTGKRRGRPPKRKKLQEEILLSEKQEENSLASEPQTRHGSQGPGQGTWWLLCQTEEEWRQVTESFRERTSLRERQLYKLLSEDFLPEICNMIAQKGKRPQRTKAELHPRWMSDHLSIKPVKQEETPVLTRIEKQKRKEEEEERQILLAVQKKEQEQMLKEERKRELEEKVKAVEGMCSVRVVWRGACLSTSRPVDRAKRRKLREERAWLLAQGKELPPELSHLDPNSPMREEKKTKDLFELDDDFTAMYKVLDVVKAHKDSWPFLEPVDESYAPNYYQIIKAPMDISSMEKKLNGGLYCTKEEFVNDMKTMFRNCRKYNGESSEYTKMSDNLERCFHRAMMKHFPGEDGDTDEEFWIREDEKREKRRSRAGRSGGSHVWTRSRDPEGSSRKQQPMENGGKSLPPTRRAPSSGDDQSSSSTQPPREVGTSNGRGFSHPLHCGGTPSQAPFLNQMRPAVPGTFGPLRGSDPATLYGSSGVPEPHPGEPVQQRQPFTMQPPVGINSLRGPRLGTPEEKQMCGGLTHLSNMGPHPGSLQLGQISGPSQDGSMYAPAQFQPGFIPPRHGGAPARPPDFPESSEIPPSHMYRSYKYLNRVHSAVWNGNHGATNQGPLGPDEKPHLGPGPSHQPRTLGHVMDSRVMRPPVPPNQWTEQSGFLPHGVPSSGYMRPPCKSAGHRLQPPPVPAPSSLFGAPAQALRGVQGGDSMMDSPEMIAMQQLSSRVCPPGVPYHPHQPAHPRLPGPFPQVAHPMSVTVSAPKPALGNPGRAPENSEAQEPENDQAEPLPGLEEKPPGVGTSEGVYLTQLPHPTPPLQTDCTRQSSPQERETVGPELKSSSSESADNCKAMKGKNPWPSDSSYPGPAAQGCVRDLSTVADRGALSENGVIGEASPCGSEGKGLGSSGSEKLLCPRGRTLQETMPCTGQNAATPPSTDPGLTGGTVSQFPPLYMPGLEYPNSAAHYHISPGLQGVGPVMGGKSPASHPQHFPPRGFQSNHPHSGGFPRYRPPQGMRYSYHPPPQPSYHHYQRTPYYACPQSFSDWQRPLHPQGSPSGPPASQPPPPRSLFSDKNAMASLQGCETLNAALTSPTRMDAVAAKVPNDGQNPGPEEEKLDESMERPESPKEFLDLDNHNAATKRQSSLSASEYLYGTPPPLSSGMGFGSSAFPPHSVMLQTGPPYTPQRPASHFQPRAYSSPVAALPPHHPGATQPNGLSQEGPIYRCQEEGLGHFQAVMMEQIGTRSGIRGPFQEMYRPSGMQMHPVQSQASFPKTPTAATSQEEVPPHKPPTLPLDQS
# [9] = molecular target: Histone acetyltransferase KAT2A (Homo sapiens) (UniProt Q92830); conditions: time 30.0 min
# Chain of Histone acetyltransferase KAT2A (Homo sapiens) (Q92830 2-837 limits assumed): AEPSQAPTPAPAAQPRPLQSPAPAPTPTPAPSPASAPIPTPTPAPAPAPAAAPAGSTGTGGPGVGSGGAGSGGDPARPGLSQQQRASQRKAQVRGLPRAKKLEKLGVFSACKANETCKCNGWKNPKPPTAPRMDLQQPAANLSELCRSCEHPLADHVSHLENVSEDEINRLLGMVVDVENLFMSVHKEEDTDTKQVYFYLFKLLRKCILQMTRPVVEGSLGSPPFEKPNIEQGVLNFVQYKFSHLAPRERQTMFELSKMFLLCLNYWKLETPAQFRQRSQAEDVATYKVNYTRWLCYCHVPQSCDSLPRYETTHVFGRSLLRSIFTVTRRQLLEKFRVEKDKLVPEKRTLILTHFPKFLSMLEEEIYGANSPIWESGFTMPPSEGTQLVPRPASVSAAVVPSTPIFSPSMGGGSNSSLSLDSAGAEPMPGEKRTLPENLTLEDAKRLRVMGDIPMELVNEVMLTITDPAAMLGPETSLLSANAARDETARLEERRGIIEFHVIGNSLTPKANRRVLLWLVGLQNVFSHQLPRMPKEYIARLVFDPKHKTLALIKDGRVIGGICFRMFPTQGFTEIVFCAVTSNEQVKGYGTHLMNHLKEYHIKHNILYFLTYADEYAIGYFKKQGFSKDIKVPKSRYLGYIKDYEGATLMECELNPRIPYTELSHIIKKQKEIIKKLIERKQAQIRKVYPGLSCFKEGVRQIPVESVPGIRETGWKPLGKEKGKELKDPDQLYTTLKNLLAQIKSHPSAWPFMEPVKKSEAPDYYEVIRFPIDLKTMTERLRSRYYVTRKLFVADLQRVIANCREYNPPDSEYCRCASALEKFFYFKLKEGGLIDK
# [10] = test system: MV4-11; assay: cells; conditions: Homo sapiens, MV4-11, 48 h
# Description: Antiproliferative activity against human MV4-11 cells assessed as inhibition of cell growth incubated for 48 hrs by MTT assay
# [11] = test system: Jurkat; assay: cells; conditions: Homo sapiens, 48 h
# Description: Antiproliferative activity against human Jurkat cells assessed as inhibition of cell growth incubated for 48 hrs by MTT assay
# [12] = test system: MM1.S; assay: cells; conditions: Homo sapiens, 48 h
# Description: Antiproliferative activity against human MM1.S cells assessed as inhibition of cell growth incubated for 48 hrs by MTT assay
Activity [1],Activity [2],Activity [3],Activity [4],Activity [5],ΔTm [6],ΔTm [7],ΔTm [8],ΔTm [9],IC50 [10],IC50 [11],IC50 [12],SMILES
50%,< 30%,< 30%,< 30%,< 30%,5 °C,5 °C,0 °C,0 °C,0.19 µM,2.08 µM,0.53 µM,COc1cc2c(cc1-c1c(C)noc1C)ncc1nc(C)n([C@H](C)c3ccccc3)c12
< 30%,< 30%,< 30%,< 30%,< 30%,0 °C,0 °C,0 °C,0 °C,0.8 µM,0.73 µM,0.48 µM,COc1cc2c(cc1-c1c(C)n[nH]c1C)ncc1nc(C)n([C@H](C)c3ccccc3)c12
